7 molecules from ChEMBL document CHEMBL3046432, “Synthesis of new series of pyrimido[4,5-b][1,4] benzothiazines as 15-lipoxygenase inhibitors and study of their inhibitory mechanism” (Med Chem Res, 2013) can be followed below.

SMILES strings stand for the structures.

The test system of assay [1] is Radical scavenging activity. In words: Antioxidant activity assessed as inhibition of DPPH radical […]. The class given is functional. (DPPH is a stable violet radical that fades when it is reduced.)
Assay [2] has as its target T1, Seed linoleate 13S-lipoxygenase-1 (Glycine max, UniProt P08170).
T1 sequence (P08170 whole entry): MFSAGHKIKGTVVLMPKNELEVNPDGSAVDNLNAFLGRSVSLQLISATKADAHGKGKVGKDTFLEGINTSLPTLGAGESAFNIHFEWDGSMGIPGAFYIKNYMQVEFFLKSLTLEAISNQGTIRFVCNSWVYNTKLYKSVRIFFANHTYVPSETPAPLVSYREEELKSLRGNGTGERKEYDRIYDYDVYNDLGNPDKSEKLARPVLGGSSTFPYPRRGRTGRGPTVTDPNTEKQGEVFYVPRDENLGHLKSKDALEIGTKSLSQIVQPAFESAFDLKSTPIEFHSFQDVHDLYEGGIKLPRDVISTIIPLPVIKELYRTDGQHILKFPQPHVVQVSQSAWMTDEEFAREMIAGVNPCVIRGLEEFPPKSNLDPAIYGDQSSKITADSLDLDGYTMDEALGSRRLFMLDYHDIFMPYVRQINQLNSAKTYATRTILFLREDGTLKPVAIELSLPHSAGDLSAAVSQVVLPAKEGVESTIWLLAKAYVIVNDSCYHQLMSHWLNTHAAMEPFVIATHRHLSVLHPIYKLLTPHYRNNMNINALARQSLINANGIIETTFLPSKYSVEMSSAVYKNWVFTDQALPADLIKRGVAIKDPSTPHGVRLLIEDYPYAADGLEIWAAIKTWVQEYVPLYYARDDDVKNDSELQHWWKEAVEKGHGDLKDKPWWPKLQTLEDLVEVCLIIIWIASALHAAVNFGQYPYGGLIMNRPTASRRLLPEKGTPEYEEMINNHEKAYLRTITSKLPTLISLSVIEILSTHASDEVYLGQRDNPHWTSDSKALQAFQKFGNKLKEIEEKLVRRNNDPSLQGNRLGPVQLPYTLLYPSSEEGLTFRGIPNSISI
In words: Inhibition of Glycine max (soybean) 15-lipoxygenase activity assessed as decrease in peroxide formation using linoleic acid as substrate preincubated with enzyme for 5 min prior to substrate addition measured after 7 min by MBTH-DMAB method.

The target in assay [3] is T1, Seed linoleate 13S-lipoxygenase-1. Nature of the assay: Inhibition of Glycine max (soybean) 15-lipoxygenase activity using linoleic acid as substrate by MBTH-DMAB method.

Usually IC50 stands for the point on the concentration scale where inhibition reaches its midpoint. A word on the Ki: it is the equilibrium dissociation constant of an inhibitor or competing ligand from its target.

In the case of `Cc1nc(N2CCN(C)CC2)nc2c1Nc1ccccc1S2`, the IC50 in assay [1] turned out to be 69.6 µM; in assay [3], 19.5 µM. The Ki in assay [2] was found to be 0.198 µM.

Turning to `CCCc1nc(N2CCC(C)CC2)nc2c1Nc1ccccc1S2`, the values for the concentration for half-maximal inhibition (IC50) in assay [1] and in assay [3] were 599 µM and 86.3 µM, respectively. Besides, the Ki in assay [2] came to 0.486 µM.

Turning to `CCCc1nc(N2CCOCC2)nc2c1Nc1ccccc1S2`, the IC50 was found to be 669 µM in assay [1] and 726 µM in assay [3]. Further, the Ki in assay [2] turned out to be 2.01 µM.

In the case of `CCCc1nc(N2CCN(c3ccccc3)CC2)nc2c1Nc1ccccc1S2`, the values for the concentration for half-maximal inhibition (IC50) in assay [1] and in assay [3] were 357 µM and 404 µM, respectively. The inhibitory constant (Ki) in assay [2] was 1.16 µM.

Take `CCCc1nc(N2CCN(C)CC2)nc2c1Nc1ccccc1S2`: the half-maximal inhibitory concentration (IC50) in assay [1] turned out to be 17.3 µM; in assay [3], 8.9 µM. The Ki in assay [2] was found to be 0.192 µM.

`CCCc1nc(N2CCCCC2)nc2c1Nc1ccccc1S2`: the IC50 worked out at 621 µM in assay [1] and 121 µM in assay [3]. The inhibitory constant (Ki) in assay [2] was 0.662 µM.

Turning to `CCCc1nc(N2CCCC2)nc2c1Nc1ccccc1S2`, the IC50 in assay [1] stood at 311 µM; in assay [3] it was 611 µM. Further, the Ki in assay [2] was 1.84 µM.
